Measured values published in ChEMBL document CHEMBL5143564, “PES derivative PESA is a potent tool to globally profile cellular targets of PES” (Bioorg Med Chem Lett, 2022).
Activity calls are given as the source filed them. The rule behind the calls is not given here.

How the values were obtained:
[1] = GSH reactivity in pH 7.4 buffer assessed as GSH adduct formation by measuring molecular weight at 1 mM by Q-TOF LC/MS analysis; assay type: physicochemical; conditions: pH 7.4, 1000 µM
[2] = molecular target: Tubulin beta (Homo sapiens) (UniProt P68371+Q9H4B7+Q13509+P04350+Q3ZCM7+P07437+Q13885+Q9BVA1+Q9BUF5+A6NNZ2); assay: Binding affinity to beta-tubulin in human MDA-MB-453 cells measured after 6 hrs by pull-down assay; assay type: cell-based; conditions: dose <= 20.0 µM, DDE = dose-dependent effect
HEK-293T = assay: Cytotoxicity against HEK293T cells up to 20 uM measured after 24 hrs; assay type: toxicity, cell-based; conditions: human
DOHH-2 [3] = assay: Induction of apoptosis in human DOHH-2 cells assessed as increase in cleaved PARP expression at 0.5 to 8 uM measured after 24 hrs by Western blot analysis; assay type: functional, cell-based; conditions: dose 0.5-8 µM
DOHH-2 [4] = assay: Induction of apoptosis in human DOHH-2 cells assessed as increase in cleaved caspase-3 expression at 8 uM measured after 4 to 24 hrs by Western blot analysis; assay type: functional, cell-based; conditions: time 4-24 hrs
Homo sapiens [5] = species: Homo sapiens; assay: Binding affinity to ADP-bound full-length human HSP70 assessed as Cys603 adduct formation at SBDalpha domain by LC-MS/MS analysis
DOHH-2 [6] = assay: Up regulation of HSP70 expression in human DOHH-2 cells at 8 uM measured after 4 to 24 hrs by Western blot analysis; assay type: functional, cell-based; conditions: time 4-24 hrs
DOHH-2 [7] = assay: Induction of apoptosis in human DOHH-2 cells assessed as increase in cleaved PARP expression at 8 uM measured after 4 to 24 hrs by Western blot analysis; assay type: functional, cell-based; conditions: time 4-24 hrs
Homo sapiens [8] = species: Homo sapiens; assay: Binding affinity to ADP-bound full-length human HSP70 by TAMRA-azide based fluorescence imaging analysis; conditions: dose 0.2-20 µM, DDE = dose-dependent effect
[9] = molecular target: T1, Thioredoxin-dependent peroxide reductase, mitochondrial (Homo sapiens) (UniProt P30048); assay: Binding affinity to PRDX3 in human MDA-MB-453 cells measured after 6 hrs by pull-down assay; assay type: cell-based; conditions: dose <= 20.0 µM, DDE = dose-dependent effect
T1 sequence (whole entry): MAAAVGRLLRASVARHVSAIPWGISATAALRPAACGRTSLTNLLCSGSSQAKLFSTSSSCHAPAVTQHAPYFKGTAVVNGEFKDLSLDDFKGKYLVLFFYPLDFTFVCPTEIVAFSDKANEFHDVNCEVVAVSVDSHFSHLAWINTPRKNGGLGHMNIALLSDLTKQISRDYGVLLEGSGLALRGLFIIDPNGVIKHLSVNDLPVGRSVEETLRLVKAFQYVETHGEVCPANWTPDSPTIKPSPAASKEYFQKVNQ

[10] = molecular target: T2, Peroxiredoxin-5, mitochondrial (Homo sapiens) (UniProt P30044); assay: Binding affinity to PRDX5 in human DOHH-2 cells measured after 6 hrs by pull-down assay; assay type: cell-based; conditions: DDE = dose-dependent effect
T2 sequence (whole entry): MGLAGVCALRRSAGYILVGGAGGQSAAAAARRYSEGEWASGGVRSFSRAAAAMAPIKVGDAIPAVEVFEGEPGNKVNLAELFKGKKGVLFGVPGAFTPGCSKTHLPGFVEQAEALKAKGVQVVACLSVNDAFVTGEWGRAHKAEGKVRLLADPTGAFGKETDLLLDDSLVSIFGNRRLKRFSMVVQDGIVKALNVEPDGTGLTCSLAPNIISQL

MDA-MB-453 = assay: Cytotoxicity against human MDA-MB-453 cells measured after 72 hrs; assay type: functional, cell-based
[11] = molecular target: T3, Peroxiredoxin-6 (Homo sapiens) (UniProt P30041); assay: Binding affinity to PRDX6 in human MDA-MB-453 cells measured after 6 hrs by pull-down assay; assay type: cell-based; conditions: dose <= 20.0 µM, DDE = dose-dependent effect
T3 sequence (whole entry): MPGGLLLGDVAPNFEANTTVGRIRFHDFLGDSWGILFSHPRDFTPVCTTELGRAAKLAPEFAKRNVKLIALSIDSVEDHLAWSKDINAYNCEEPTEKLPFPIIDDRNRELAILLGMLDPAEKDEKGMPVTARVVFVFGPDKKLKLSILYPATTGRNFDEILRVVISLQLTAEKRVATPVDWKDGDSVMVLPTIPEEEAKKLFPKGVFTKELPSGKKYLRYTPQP

[12] = molecular target: T1, Thioredoxin-dependent peroxide reductase, mitochondrial (Homo sapiens); assay: Binding affinity to PRDX3 in human DOHH-2 cells by MS analysis; assay type: cell-based
[13] = molecular target: T4, Protein disulfide-isomerase A4 (Homo sapiens) (UniProt P13667); assay: Binding affinity to PDIA4 in human DOHH-2 cells measured after 6 hrs by pull-down assay; assay type: cell-based; conditions: DDE = dose-dependent effect
T4 sequence (whole entry): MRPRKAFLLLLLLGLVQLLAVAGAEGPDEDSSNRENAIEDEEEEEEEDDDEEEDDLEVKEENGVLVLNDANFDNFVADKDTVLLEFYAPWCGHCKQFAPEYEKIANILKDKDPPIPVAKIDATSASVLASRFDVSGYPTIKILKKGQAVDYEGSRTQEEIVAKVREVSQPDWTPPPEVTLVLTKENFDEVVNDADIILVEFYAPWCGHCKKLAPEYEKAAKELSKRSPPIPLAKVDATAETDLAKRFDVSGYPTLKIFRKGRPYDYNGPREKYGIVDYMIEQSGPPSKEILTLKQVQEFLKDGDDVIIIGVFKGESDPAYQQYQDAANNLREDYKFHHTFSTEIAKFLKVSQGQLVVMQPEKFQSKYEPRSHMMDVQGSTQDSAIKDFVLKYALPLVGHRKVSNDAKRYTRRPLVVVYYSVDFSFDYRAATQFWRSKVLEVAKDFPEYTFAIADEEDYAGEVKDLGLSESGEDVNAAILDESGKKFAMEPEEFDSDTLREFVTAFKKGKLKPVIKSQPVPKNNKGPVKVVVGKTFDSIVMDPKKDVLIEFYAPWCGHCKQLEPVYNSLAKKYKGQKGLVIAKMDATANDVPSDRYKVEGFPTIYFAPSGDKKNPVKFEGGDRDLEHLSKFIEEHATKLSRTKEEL

[14] = molecular target: T5, Peroxiredoxin-2 (Homo sapiens) (UniProt P32119); assay: Binding affinity to PRDX2 in human MDA-MB-453 cells measured after 6 hrs by pull-down assay; assay type: cell-based; conditions: dose <= 20.0 µM, DDE = dose-dependent effect
T5 sequence (whole entry): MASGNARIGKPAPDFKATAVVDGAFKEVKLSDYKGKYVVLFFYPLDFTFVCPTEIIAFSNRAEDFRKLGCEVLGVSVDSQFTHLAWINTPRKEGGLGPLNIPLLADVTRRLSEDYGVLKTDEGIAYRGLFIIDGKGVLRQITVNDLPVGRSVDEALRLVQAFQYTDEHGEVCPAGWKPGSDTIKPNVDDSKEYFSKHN

Homo sapiens [15] = species: Homo sapiens; assay: Binding affinity to ADP-bound full-length human HSP70 assessed as cysteine adduct formation at SBDalpha domain by measuring half life at 1 mM by fluorescence spectra analysis
DOHH-2 [16] = assay: Induction of apoptosis in human DOHH-2 cells assessed as increase in cleaved caspase-3 expression at 0.5 to 8 uM measured after 24 hrs by Western blot analysis; assay type: functional, cell-based; conditions: dose 0.5-8 µM
[17] = molecular target: T2, Peroxiredoxin-5, mitochondrial (Homo sapiens); assay: Binding affinity to PRDX5 in human DOHH-2 cells by MS analysis; assay type: cell-based
[18] = molecular target: Coronin-1A (Homo sapiens) (UniProt P31146); assay: Binding affinity to coronin-1A in human DOHH-2 cells measured after 6 hrs by pull-down assay; assay type: cell-based; conditions: DDE = dose-dependent effect
DOHH-2 [19] = assay: Up regulation of HSP90alpha expression in human DOHH-2 cells at 8 uM measured after 4 to 24 hrs by Western blot analysis; assay type: functional, cell-based; conditions: time 4-24 hrs

Chain of Coronin-1A (Homo sapiens) (P31146 whole entry): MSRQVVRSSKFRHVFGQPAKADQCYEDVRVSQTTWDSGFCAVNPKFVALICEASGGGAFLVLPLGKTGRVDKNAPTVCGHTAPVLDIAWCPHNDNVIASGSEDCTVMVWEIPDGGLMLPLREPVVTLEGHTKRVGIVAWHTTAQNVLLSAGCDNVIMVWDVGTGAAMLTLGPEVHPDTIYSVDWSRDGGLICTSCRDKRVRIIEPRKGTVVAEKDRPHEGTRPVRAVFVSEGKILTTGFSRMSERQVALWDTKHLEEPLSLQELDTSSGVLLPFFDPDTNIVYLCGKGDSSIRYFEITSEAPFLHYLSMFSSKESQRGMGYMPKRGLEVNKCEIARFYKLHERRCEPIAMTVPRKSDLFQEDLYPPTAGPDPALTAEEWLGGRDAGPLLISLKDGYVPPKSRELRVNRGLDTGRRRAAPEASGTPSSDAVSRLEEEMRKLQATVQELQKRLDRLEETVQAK

- Activity [1]: 513 Da
- Activity [2]: Dde
- Activity (Homo sapiens [5]): Active
- Activity (Homo sapiens [8]): Dde
- Activity [9]: Dde
- Activity [10]: Dde
- Activity [11]: Dde
- Activity [12]: Active
- Activity [13]: Dde
- Activity [14]: Dde
- T1/2 (Homo sapiens [15]): 1.53 h
- Activity [17]: Active
- Activity [18]: Dde
Structure (SMILES): C#Cc1cccc(C#CS(N)(=O)=O)c1
- Activity (HEK-293T): Non-Toxic
- Activity (DOHH-2 [3]): Active
- Activity (DOHH-2 [4]): Active
- Activity (DOHH-2 [6]): Active
- Activity (DOHH-2 [7]): Active
- Activity (MDA-MB-453): Active
- Activity (DOHH-2 [16]): Active
- Activity (DOHH-2 [19]): Active
